What all share (type): in vivo
One assay deals with Dog Tooth-pulp. The assay can be described thus: Dog Tooth-pulp Stimulation test (analgetic action). The note with it: Canis lupus familiaris, po, read-out: Minimum effective dose, Dog Tooth-pulp Stimulation. The text has this:
(§1) Particularly preferred meanings for the groups R1 and R2 are hydrogen C1-4 alkyl, in particular methyl, or benzyl. Particularly preferred meanings for R3 are hydrogen or C1-4alkyl in particular methyl. Particularly preferred meanings for R5 and R6 are hydrogen, C1-4 alkyl substituted by C1-4 alkylamino or by C1-4 dialkylamino or by phenyl or by 4-fluorobenzoyl or in which the groups together with the adjacent nitrogen atom form a morpholino or piperidino moiety; another preferred group for R5 or R6 is carbamoyl (--CONH2). Specific preferred compounds and salts are those the preparation of which is described in the Examples. The compounds of the invention have marked analgetic activity and are devoid of respiratory depressant action. […] These characteristics are often associated with non-narcotic analgetics in man. For example, in Table I, the compound 1,2,3,3aα,8,8aα-hexahydro-N-methylcyclopent[a]inden-1α-amine, maleate (AH 9197) and the diastero-isomer 1,2,3,3aα,-8,8aα-hexahydro-N-methylcyclopent[a]inden-1β-amine maleate (AH 8538) are compared with codeine in standard pharmacological tests for evaluating analgetic action. The N-ethyl analogue of AH 9197 (N-ethyl-1,2,3,3aα,8,8aα-hexahydrocyclopent[a]inden-1α-amine) maleate (AH 9903) is also included.

Assay [1] can be described thus: Phenylquinone Writhing test (analgetic action). The note with it: po.
From the text: as §1

Assay [2] can be described thus: Hot plate test (analgetic action).
From the text: as §1
In general terms: Thermal pain tests record how soon the animal reacts.

Structures can show the parent of a compound that is named as a salt. Where only a bound is given, the exact number is not on record here.

The ED50 is the dose at which the effect has come halfway, by size or by number of responders. Read a low ED50 as an effect at a small dose. For the compound `CN[C@H]1CC[C@@H]2c3ccccc3C[C@H]12` (relative stereo) [Ex. 1, 1,2,3,3aα,8,8aα-Hexahydro-N-methylcyclopent[a]inden-1α-amine, maleate], the minimal effective dose in the assay on Dog Tooth-pulp was 3.7 mg/kg. The ED50 was 7.4 mg/kg in assay [1], 10 mg/kg in assay [2] (po) and 0.44 mg/kg in assay [2] (sc).
With `CCN[C@H]1CC[C@@H]2c3ccccc3C[C@H]12` (relative stereo) [Ex. 2, N-Ethyl-1,2,3,3aα,8,8aα-hexahydrocyclopent[a]inden-1α-amine, maleate], the minimal effective dose in the assay with Dog Tooth-pulp is under 5 mg/kg. In addition, the results for the ED50 in assay [1], in assay [2] (po) and in assay [2] (sc) were 4.6 mg/kg, 9.5 mg/kg and 2.2 mg/kg, respectively.
Consider `CN[C@@H]1CC[C@@H]2c3ccccc3C[C@@H]21` (relative stereo) [Ex. 3, 1,2,3,3aα,8,8aα -Hexahydro-N-methylcyclopent[a]inden-1β-amine, maleate], for which the minimal effective dose in the assay with Dog Tooth-pulp came out at 5 mg/kg. The ED50 in assay [1] was found to be 11.9 mg/kg; in assay [2] (sc) it was 15 mg/kg.
With `COc1ccc2c3c1O[C@H]1[C@@H](O)C=C[C@H]4[C@@H](C2)N(C)CC[C@@]341` [Codeine, codeine, reference compound], in the assay on Dog Tooth-pulp, the minimal effective dose amounted to 3.3 mg/kg. The ED50 turned out to be 5.8 mg/kg in assay [1], 15.5 mg/kg in assay [2] (po) and 11.8 mg/kg in assay [2] (sc).

Source of the values: US3952050A, “Cyclopent [a] indene compounds” (Allen & Hanburys Limited, priority 1972, dated 1976).
